Assay [1] has as its system isolated neonatal rat ventricular cardiac myocytes (NRVM). Briefly: Surface area (hypertrophy) of isolated NRVM, immunocytochemistry and morphometry (Examples 1-2). The assay is classed as cell-based. As to conditions: for FGF2-induced increase in cell surface area (hypertrophy) in presence of inhibitor: 48 h FGF2, inhibitor pre-treated 60 min at Table 2 concentration; for FGF23-induced increase in cell surface area (hypertrophy) in presence of inhibitor: 48 h FGF23, inhibitor pre-treated 60 min at Table 2 concentration; for cell surface area: 48 h incubation with the FGF alone. As for the experimental part:
NRVM were isolated using a standard isolation system (Worthington Biochemical Corporation) (Toraason et al., Toxicology, 56(1):107-117, 1989). Hearts from 1-2 day old Sprague Dawley rats (Charles River) were harvested, minced in calcium- and magnesium-free Hank's Balanced Salt Solution (HBSS), and the tissue digested with 50 μg/ml trypsin at 4° C. for 20-24 hours. Soybean trypsin inhibitor in HBSS was added and the tissue was further digested with collagenase (in Leibovitz L-15 medium) under slow rotation (15 rpm) at 37° C. for 45 minutes. Cells were released by gently triturating the suspension 20 times with a standard 10 ml plastic serological pipette and filtering it twice through a cell strainer (70 μm, BD Falcon). Cells were incubated at room temperature for 20 minutes and spun at 100 g for 5 minutes. The cell pellet was resuspended in plating medium [Dulbecco's Modified Eagle Medium (DMEM; Cellgro) with 17% Media 199 (Invitrogen), 15% fetal bovine serum (FBS; Invitrogen) and 1% penicillin/streptomycin solution (P/S; Invitrogen)]. Cells were counted using a hemocytometer.
Cells were plated on glass and plastic surfaces which were coated with laminin (Invitrogen; 10μg/ml in PBS) at room temperature for 1 hour prior to plating. For immunofluorescence analysis, 1×10^6 cells were seeded per well on glass coverslips in 6-well plates. For protein and RNA isolation, 2×10^6 cells were seeded in 6 cm-culture dishes. Cells were left undisturbed in plating medium at 37° C. for 72 hours and then cultured in maintenance medium (DMEM with 20% Media 199, 1% insulin-transferrin-sodium selenite solution (ITS; Sigma-Aldrich) and 1% P/S) in the presence of 100 μM 5-bromo-2′-deoxyuridine (BrdU; Sigam-Aldrich) to eliminate proliferating non-myocytes resulting in a relatively pure population of isolated cardiac myocytes (Bishopric et al., 1987). After 4 days, isolated cardiac myocytes were cultured in BrdU-containing maintenance medium in the presence of recombinant murine FGF23 (26.1 kDa, 251 amino acids; R&D Systems) or FGF2 (16.2 kDa, 144 amino acids; R&D Systems) for 48 hours.
We analyzed isolated NRVM on laminin-coated glass coverslips by immunocytochemsitry according to our established protocols (Faul et al., Cell Biol., 169(3):415-424, 2005; Faul et al., Cell Biol., 27(23):8215-8227, 2007). The mouse monoclonal antibody against sarcomeric α-actinin (EA-53; Sigma-Aldrich) was used at 1:1000 and Cy3-conjugated goat-anti mouse (Jackson Immuno Research) as secondary antibody at 1:750. To visualize nuclei, fixed cells were incubated with 4′,6-diamidino-2-phenylindole (DAPI; 400 ng/ml in PBS) for 5 minutes. Immunofluorescence images were taken on a Leica TCS-SP5 confocal microscope with a 63× oil objective with a 1.6× zoom. Leica AF6000 fluorescence software was used to measure the cell surface area based on α-actinin-positive staining.
To assess the signaling pathways involved in FGF23- and FGF2-mediated hypertrophy, we analyzed the morphometry of plated cells that were pre-treated with specific inhibitors for 60 minutes prior to the addition of the FGFs at varying concentrations.

The test system of another assay is C57BL/6 mice. The assay is described as follows: Intravenous injection of FGFs (with or without Fc-FGFR decoy receptors) in mice. As to conditions: 40 μg/kg FGF, ten times over five days. The class given is in vivo, mouse. The protocol:
Twelve-week old adult C57BL/6 mice underwent tail vein injections using standard protocols as previously described for the systemic delivery of plasmid DNA (Faul et al., 2008). Briefly, mice were placed in a restrainer and 40 μg/kg of FGF23 dissolved in 200 μl of PBS were injected into the tail vein of 5 mice twice daily with eight hours in between injections for 5 consecutive days. Four mice underwent the same injection schedule using 200 μl of PBS alone as negative control. On the morning of the 6th day, 16 hours after the final tail vein injections, animals were sacrificed and the hearts were isolated and prepared using the same protocol as described above.
Short-axis cardiac sections were used to quantify myocardial thickness by measuring the distance from the inner to the outer myocardial zone at the mid-chamber zone. […] Since klothro-ablated kl/kl mice display severe growth retardation with small hearts (Kuro-o et al., Nature, 390(6655):45-51, 1997), we also measured relative wall thickness calculated as two times the anterior wall thickness divided by left ventricular internal diameter. Total RNA was isolated from flash frozen hearts using TRIzol (Invitrogen) and RT-PCR analyses were performed as described above.
We measured cross-sectional surface area of cardiac myocytes in paraffin-embedded short-axis sections of the heart. Briefly, 7 μm thick sections were deparaffinized according to our established protocols. To specifically label cardiac myocytes, we used mouse monoclonal MF20 antibody against sarcomeric myosin at 1:200 and Cy5-conjugated donkey-anti mouse (Invitrogen) as secondary antibody at 1:400. To visualize nuclei, fixed tissue was incubated with 4′,6-diamidino-2-phenylindole (DAPI; 400 ng/ml in PBS) for 5 minutes. To visualize cellular borders, fixed tissue was incubated with wheat germ agglutinin (WGA) conjugated to Alexa Fluor 555 (Invitrogen) at 1 mg/ml in PBS containing 10 mM sodium azide. Immunofluorescence images were taken on a Leica TCS-SP5 confocal microscope with a 63× oil objective. Leica AF6000 fluorescence software was used to quantify cross-sectional cell surface area of 25 cells per field at four fields along the mid-chamber free wall based on WGA-positive staining.
Next, we wanted to determine the effectiveness of this FGFR trapping system on FGF-induced LVH in mice. To our knowledge, Fc decoy receptors have not yet been used to study FGFR function in vivo in any biological context, but served as valuable tools to analyze the functions of other receptor tyrosine kinases, like receptors for vascular endothelial growth factor (VEGFR) and their role in tumor growth and metastasis. We used similar Fc-FGFR concentrations as described for Fc-VEGFR in animal models of cancer (Lin J et al., Cancer Res. 2005; 65(15):6901-9).

The test system of assay [2] is neonatal mouse ventricular myocytes (NMVM). The assay is described as follows: Hypertrophic growth and β-MHC of isolated NMVM (wild-type or FGFR4−/−). The assay is classed as cell-based. As to conditions: 48 h. The protocol: NMVM were isolated enzymatically (Kreusser et al., 2014). Briefly, hearts from 1-3 day-old mice were harvested, minced in PBS/glucose and further digested with collagenase type 2 (0.2% w/v) and DNase (0.05% w/v) on a rotary shaker at 37° C. for 11 minutes. Cells were then released from the tissue by triturating the suspension twice with a standard 10 ml plastic serological pipette, transferred to DF10 medium (Dulbecco's Modified Eagle Medium/Ham's Nutrient Mixture F12 adjusted to 17 mM NaHCO2 containing 2 mM L-glutamine, 1% P/S and 10% FBS), and stored on ice. The remaining tissue was further incubated in PBS/glucose/collagenase/DNase solution on a rotary shaker at 37° C. for 11 minutes. The trituration and incubation steps were repeated 5-7 times until the tissue was completely dissolved. Cells were pelleted at 300 g for 5 minutes, resuspended in DF20 media (Dulbecco's Modified Eagle Medium/Ham's Nutrient Mixture F12 adjusted to 17 mM NaHCO2 containing 2 mM L-glutamine, 1% P/S and 20% FBS), and preplated for 1 hour to eliminate fibroblasts. Remaining cells were counted using a hemocytometer and plated on glass and plastic surfaces, which were coated with laminin (Sigma-Aldrich; 10 μg/ml in PBS) at room temperature for 1 hour prior to plating. For immunofluorescence analysis, 3×10^5 cells were seeded per well on glass coverslips in 24-well plates. For Western blot analyses of total protein extracts, 5×10^6 cells were seeded in 10 cm-culture dishes. Cells were left undisturbed in DF20 medium at 37° C. for 72 hours, starved overnight with DF medium (Dulbecco's Modified Eagle Medium/Ham's Nutrient Mixture F12 adjusted to 17 mM NaHCO2 containing 2 mM L-glutamine, 1% P/S), and treated in DF medium with recombinant FGF23, FGF2 (both at 100 ng/ml) or AngII (1 μM, Sigma-Aldrich) for 48 hours.
HEK293 cells, NRVM or NMVM were treated with growth factors for 30 minutes to analyze activation of signal transduction mediators, or for 48 hours to analyze expression levels of hypertrophic marker proteins. Cells were scraped from 6-well plates using 500 μl CHAPS extraction buffer (20 mM Tris-HCl pH7.5, 500 mM NaCl, 0.5% CHAPS, protease inhibitor cocktail (Roche), protein phosphatase inhibitors [Sigma-Aldrich]) and incubated on ice for 30 minutes. The cell lysate was centrifuged at 14,000 rpm and 4° C. for 30 minutes, and the supernatant boiled in sample buffer and analyzed by SDS-PAGE and immunoblotting. For protein extraction from mouse hearts, tissue was isolated, minced and homogenized in RIPA extraction buffer (50 mM Tris-HCl pH 7.5, 200 mM NaCl, 1% Triton X-100, 0.25% DOC, 1 mM EDTA, 1 mM EGTA, protease and phosphatase inhibitors) at 1:10 (w:v), and protein lysates were prepared as described above.
Cultured cells were fixed in 2% PFA (in 5 mg/ml sucrose) for 5 minutes and permeabilized in 1% Triton X-100 (in PBS) for 10 minutes. We analyzed hypertrophic growth of isolated NRVM and NMVM on laminin-coated glass coverslips after 48 hours of treatment with growth factors. For FGFR4 expression and localization analyses, untreated NMVM from wild-type and FGFR4^−/− mice were immunolabeled. The mouse monoclonal antibody against sarcomeric α-actinin (EA-53; Sigma-Aldrich) was used at 1:1,000, and rabbit polyclonal anti-FGFR4 (C-16; Santa Cruz) at 1:50. Cy3-conjugated goat-anti mouse and Alexa488-conjugated goat-anti rabbit (Jackson Immuno Research) were used as secondary antibodies at 1:300. To visualize nuclei, fixed cells were incubated with 4′,6-diamidino-2-phenylindole (DAPI; 400 ng/ml in PBS) for 10 minutes. Immunofluorescence images were taken on a Leica TCS-SP5 confocal microscope with a 63× oil objective.
Myocyte cross-sectional area was measured based on α-actinin-positive staining using Leica AF6000 fluorescence software. […]

The values that follow come from patent US20160039936A1, “FIBROBLAST GROWTH FACTOR RECEPTOR INHIBITION FOR THE TREATMENT OF DISEASE” (UNIVERSITY OF MIAMI, priority 2011, published 2016).

“Also recorded” adds a separate entry of the source.

Consider `O=c1[nH]c2ccccc2n1C1CCN(Cc2ccc(-c3nc4cc5nc[nH]c5cc4nc3-c3ccccc3)cc2)CC1` [A6730], for which, in assay [1], the “FGF2-induced increase in cell surface area (hypertrophy) in presence of inhibitor” value is “partially attenuated” and the “FGF23-induced increase in cell surface area (hypertrophy) in presence of inhibitor” value is reported as “did not significantly alter”.
For the molecule `COc1cccc(-c2cc(=O)c3ccccc3o2)c1N` [PD98059], in assay [1], the “FGF2-induced increase in cell surface area (hypertrophy) in presence of inhibitor” value is “completely prevented” and the “FGF23-induced increase in cell surface area (hypertrophy) in presence of inhibitor” value is on record as “only partially diminished”.
The like results for `N#CC(=C(/N)Sc1ccccc1N)/C(C#N)=C(\N)Sc1ccccc1N` [U0126] were, in that order, “completely prevented” and “only partially diminished”.
The like results for `COc1ccc2c(c1)CC[C@@H]1[C@@H]2CC[C@]2(C)[C@@H](NCCCCCCN3C(=O)C=CC3=O)CC[C@@H]12` [U73122] were, in that order, “had no effect” and “attenuated”.
In the case of FGF4, the cell surface area entry in assay [1] was “no change in size; also recorded: did not induce a hypertrophic response”.
Consider “FGF19: endocrine fibroblast growth factor 19”, for which, in assay [1], the cell surface area result is “significant dose-dependent increase”. In addition, in the assay on C57BL/6 mice, the “induction of LVH” value is on record as “significant induction of LVH”.
Consider “angiotensin (Ang) II [AngII, pro-hypertrophic angiotensin II (Sigma-Aldrich), reference compound]”, for which, in assay [2] (immunoblot), the “expression of β-MHC protein in FGFR4−/− NMVM” value is listed as “induced this effect” and the “expression of β-MHC protein in wild-type NMVM” value is “increased expression”. Also, in assay [2] (FGF 100 ng/ml, AngII 1 μM), the “cross-sectional area (size) of NMVM from FGFR4−/− mice” value is “increase the size” and the “cross-sectional area of wild-type NMVM” value is reported as “significant increases”.

B1: FGF21: endocrine fibroblast growth factor 21 (protein, UniProt Q9NSA1 29-209, looked up)
Fibroblast growth factor 21: HPIPDSSPLLQFGGQVRQRYLYTDDAQQTEAHLEIREDGTVGGAADQSPESLLQLKALKPGVIQILGVKTSRFLCQRPDGALYGSLHFDPEACSFRELLLEDGYNVYQSEAHGLPLHLPGNKSPHRDPAPRGPARFLPLPGLPPALPEPPGILAPQPPDVGSSDPLSMVGPSQGRSPSYAS
For B1, in assay [1], the cell surface area result is reported as “significant dose-dependent increase”. In addition, the “induction of LVH” value in the assay with C57BL/6 mice is on record as “significant induction of LVH”.
